Laboratory results reported in ChEMBL document CHEMBL1135894, “Design and synthesis of a novel and potent series of inhibitors of cytosolic phospholipase A(2) based on a 1,3-disubstituted propan-2-one skeleton” (J Med Chem, 2002).

Tested on: HL-60
Assay: Inhibition of [3H]arachidonic acid production by stimulated HL60 cells.
Format: functional, cell-based
Settings: Homo sapiens

IC50 [µM]	Compound
29	CCCCC/C=C\C/C=C\C/C=C\C/C=C\CCCC(=O)C(F)(F)F [ARACHIDONYL TRIFLUOROMETHYLKETONE]
2.8	CCCCCCCCCCOc1ccc(OCC(=O)COc2ccc(C(=O)O)cc2)cc1
